Measured values: patent publication US10016444B2, “Molecules for bone tissue regeneration” (ISTITUTO ORTOPEDICO RIZZOLI, priority 2014, dated 2018)

Experiments:
[1] = tested on: human mesenchymal stem cells (MSCs); assay: Mineralisation assay on MSCs (Alizarin Red); format: cell-based; conditions: for mineralising capacity of MSCs (Alizarin Red): osteogenic conditions, dose dependence
Protocol: The evaluation of the functional capacity to deposit inorganic matrix on the part of MSC cells was evaluated with an in vitro mineralisation assay, according to an already consolidated method (Grassi F. et al. J. Tissue Eng Reg Med, 2013); MSC cells were maintained under culture for 21 days in the presence of […] of ascorbic acid, 2 mM of β-glycerophosphate and 100 nM of dexamethasone. […] Finally, the mineralised matrix was visualised by staining with Alizarin Red and quantified by spectrophotometry (Nanoquant, Tecan Group, Mannedorf, Switzerland).

[2] = tested on: human mesenchymal stem cells (MSCs); assay: Cell proliferation of MSCs by tritiated thymidine method; format: cell-based; conditions: 33 μM, both at 24 and 72 h after stimulation, vs unstimulated control
Protocol: Cell proliferation was measured in the MSCs by means of the tritiated thymidine method, in the presence or absence of stimuli, following a method already published in precedence (Gabusi E. et al. J Cell Physiol. 2011). […] After 48 h, tritiated thymidine (Amersham Pharmacia Biotech Italy, Milan) was added to each well at the final concentration of 2 mCi/ml and the culture further incubated for 18 h at 37° C. Lastly, the plates were aspirated through glass fibre filters and dried and the radioactivity incorporated in the cells, indicative of proliferative activity, was measured by means of a TopCount Microplate Scintillation Counter (Packard Instrument Company, Meriden, Conn.). The data are expressed as cpm (count per minute).

[3] = Determination of the release of H2S by amperometry; format: physicochemical
Protocol: Amperometry—the potential release of H2S from the tested compound was evaluated by means of the amperometric method, using an Apollo-4000 Free Radical Analyzer (WPI) connected to mini-electrodes selective for H2S. The experiments were conducted at room temperature in phosphate buffer (NaH2PO4.H2O 0.128 g, Na2HPO4.12H2O 0.597 g, NaCl 4.388 g in 500 mL H2O) at pH 7.4. When required by the experimental protocol, 4 mM L-cysteine was also dissolved in the above-described phosphate buffer, maintaining the pH a 7.4. After stabilisation of the mini-electrodes selective for H2S in 10 mL of buffer, 100 μL of the compound DM-22 solubilised in DMSO was added at the final concentration of 1 mM. The formation of H2S was recorded for 20 minutes. The same experimental procedure was also carried out in the buffer containing L-cysteine. The correspondence between the amperometric currents (recorded in pA) and the concentrations of H2S was determined by means of suitable calibration curves previously obtained using increasing concentrations of NaHS (1 μM, 3 μM, 5 μM, 10 μM) at pH 4.
The curves related to the progressive release of H2S as a function of time were analysed by means of the following equation: Ct=Cmax−(Cmax·e−k·t)
Where Ct is the concentration at time t, Cmax is the maximum concentration obtained during the recording time and the constant k is 0.693/t½, and where t½ is the time it takes to reach half of Cmax. The values of Cmax and t½ were calculated by means of software: Graph Pad Prism 4.0 and expressed as a value±standard error.

human osteoclasts (OCs) [4] = conditions: OCs on Biocoat Osteologic slides, qualitative evaluation
Protocol: The ability of OCs to perform a physiological function of degrading the inorganic matrix was assessed by means of the ‘Pit Assay’, in which the OCs were cultured on Biocoat Osteologic (BD Bioscience) slides according to the procedure described in detail above.

human osteoclasts (OCs) [5] = assay: Differentiation of human osteoclasts (TRAP staining count); format: cell-based; conditions: for inhibition of OC differentiation (number of TRAP-positive mature OCs): monocyte precursors with M-CSF and RANKL, 8 days, 1-33 μM
Description: Human osteoclasts (OCs) were obtained according to a method already described and published (Grassi F. et al. J Cell Physiology 2011 April; 226(4):982-90). Briefly, the OCs were differentiated in vitro starting from monocytic precursors obtained from the peripheral blood of healthy, consenting donors; in particular, whole blood was stratified on Ficoll-Hypaque and the mononuclear cells were obtained by centrifugation. Monocytes were isolated from the latter by immunomagnetic separation of cells positive to the antigen CD11b via a MACS apparatus (Miltenyi Biotech, Calderara di Reno, Bologna). […] The number of mature OCs obtained for each condition of stimulation was then identified by means of a manual count, under a microscope, of the multinuclear cells positive to tartrate-resistant acid phosphatase (TRAP) staining.

[6] = tested on: human mesenchymal stem cells (MSCs); assay: Cell viability by Toluidine Blue staining of MSCs; format: cell-based; conditions: 72 h, 33 μM
Description: At the end of the period of culture, moreover, the MSCs underwent staining with Toluidine Blue stain in order to evaluate the residual viability, which was then quantified by means of a spectrophotometer (Nanoquant, Tecan Group, Mannedorf, Switzerland).

[7] = tested on: human mesenchymal stem cells (MSCs)
Protocol: Briefly, 5 ml of bone marrow aspirate was obtained from consenting patients who underwent post-traumatic orthopaedic surgery. The mononuclear cells were obtained following centrifugation in a density gradient (Ficoll-Hypaque); the cells thus obtained were washed with PBS, resuspended in a D-MEM culture medium containing 15% FBS, then counted and seeded in plastic flasks at a concentration of 2×10^6 cells/flask T150. After 1 week, the non-adherent cells were removed and the adherent cells expanded in culture up to the concentration of 5000 MSC/cm^2 and used, finally, in the culture passage p.1 for the experiments.
Cytoxicity was evaluated in the culture after 24 h and 72 h by means of the lactate dehydrogenase (LDH) method, using a commercial kit (Cytotoxicity Detection Kit, Roche, Milan). In order to avoid interferences due to components present in serum, the cells were maintained under low serum conditions (5%) in the culture medium.

## [Na+].[SH-] [NaHS, reference compound]
[1]; 21 days
  mineralising capacity of MSCs (Alizarin Red): respond as expected

## O=C(NCCCC(O)(P(=O)(O)O)P(=O)(O)O)c1ccc(N=C=S)cc1 [DM-22]
[2]
  proliferative activity in MSCs: does not induce any significant decrease in proliferation
[3]; 1 mM compound in phosphate buffer pH 7.4, room temperature, no L-cysteine
  concentration of H2S detected after 20 minutes of incubation: approximately 1.5 μM
[3]; 1 mM compound in phosphate buffer pH 7.4 in the presence of 4 mM L-cysteine
  maximum concentration of H2S detected after 20 minutes of incubation: approximately 45 μM
[3]; summary statement
  liberation of H2S: capable of liberating H2S with slow-release kinetics
Human osteoclasts (OCs) [4]
  inhibition of erosive capacity of OCs (pits, qualitative): only at the concentrations of 10 and 33 μM do the eroded areas disappear completely
[1]; 21 days, concentrations of 3.3, 10 and 33 μM
  mineralisation compared to MSCs treated with alendronate: significantly greater mineralisation
[1]; 21 days, maximum concentration of 33 μM
  degree of mineralisation compared to control MSCs: significantly greater than that of the control MSCs
[1]; 21 days
  mineralising capacity of MSCs (Alizarin Red): dose-dependent capacity to induce mineralisation
[1]; summary statement
  range of concentration in which it stimulates the anabolic function and significantly inhibits osteoclasts: 10 to 33 µM
Human osteoclasts (OCs) [5]; concentrations being equal
  times less effective than alendronate in suppressing OCs: 33-100 times
Human osteoclasts (OCs) [5]
  inhibition of OC differentiation (number of TRAP-positive mature OCs): statistically significant only at the highest concentration (33 μM)
[6]
  cell viability (Toluidine Blue) compared to the unstimulated control: does not bring about any decrease
[7]; 1-33 μM, at both 24 h and 72 h, low serum (5%)
  cytotoxicity (LDH assay): does not induce any cytotoxicity
[7]; 24 h
  cytotoxicity (LDH assay) compared to the basal level induced by serum deprivation: significant protection
[7]; 72 h, 33 μM
  cellular toxicity (LDH assay): completely absent

## NCCCC(O)(P(=O)(O)O)P(=O)(O)O [alendronate, reference compound]
[2]
  proliferative activity in MSCs: significant inhibition of proliferative activity
Human osteoclasts (OCs) [5]
  inhibition of OC differentiation (number of TRAP-positive mature OCs): strong capacity to inhibit OC differentiation starting from the lowest concentration used in the study (1 μM)
[6]
  cell viability (Toluidine Blue) compared to the unstimulated control: significant decrease in cell viability

## [Ca+2].[Cl-].[Cl-] [calcium chloride, reference compound]
[1]; 21 days
  mineralising capacity of MSCs (Alizarin Red): respond as expected
